According to patent US8071314B2 (priority 2001, dated 2011):
“And” between values parts separate entries of the source, which are not always exact repeats. Equal entries are not always repeated. Where two headings read alike, the source gives them in different places.

Test system: N-methyl-D-aspartate (NMDA) receptor
Assay type: cell-based, mouse

## NC(CCCP(=O)(O)O)C(=O)O [D-APV, 2-amino-5-phosphonovalerate]
50 μM D-APV, all genotypes, hippocampal slices, 100 Hz tetanus, 100 μM picrotoxin in bath
  LTP in the presence of the NMDA antagonist: completely abolished
n=3
  Posttetanus fEPSP slopes, averaged over 180 min (relative to baseline): 107±14% and 97±9%
n=5
  Posttetanus fEPSP slopes, averaged over 180 min (relative to baseline): 106±10%
